# Measured values published in patent publication US4975433A, “Aminomethyl derivatives of biologically active substances and enhanced delivery thereof across topical membranes” (priority 1989, dated 1990).
# Values joined by “and” are separate entries in the source; they are usually repeats but may differ in a detail not shown here. Equal entries are not always repeated. Where two headings read alike, the source gives them in different places. Marks after values point to notes of the source that are not given here.
# How the values were obtained:
# [1] = delivery of 5-FU, previous data of Mollgaard et al; type: in vitro ADME, human
# Description: The diffusion cell data previously reported for the delivery of 5-FU from PG (Mollgaard et al, supra), were analyzed and a flux of 7.8×10^-4 mg/cm^2.hr with a lag time of 17 hr was calculated. […] […]. […] Thus, the present study of delivery of 5-FU appears to be consistent with the observations of Mollgaard et al, supra.
# . When the data for the diffusion of the best prodrug of 5-FU (1-butyryloxymethylderivative) described in Mollgaard et al, supra, were used to calculate a flux for that prodrug, a flux of 17.2×10^-4 mg/cm^2.hr was obtained. […]
# [2] = cited from earlier work
# [3] = cited from earlier work; remark: listed apart in the source
# [4] = delivery of theophylline, previous study of Sloan et al; conditions: from flux of previous study
# [5] = hydrolysis / stability of adenine and cytosine adducts followed by UV (Example 1); type: physicochemical; conditions: water, dilute aqueous solution, about 1×10^-4 mole/l, read-out: t1/2 of hydrolysis (converted)
# Source text: The methanol UV spectra of the adducts of cytosine and adenine were stable for up to 2 hr. The water UV spectrum of the mono-adduct of adenine 1b was essentially identical with adenine itself under the same conditions. […] The rates of hydrolysis of three of the adducts (1d, 1e and 2d) were followed by UV at about 1×10^-4 mole/1 by following the decrease in intensity of their respective UV max with time. Spectra were monitored until stable spectra were produced which in all cases were essentially identical with the parent purine or pyrimidine. Plots of At-At.infin. versus time were used to determine t 1/2. The hydrolyses of the adducts were also followed by ^1 H NMR spectroscopy. Solutions (DMSO-d6) of the adducts at about 30 mg/ml, were diluted with D2 O in a dropwise fashion until a 1:1 ratio of the two solvents was reached. Integrations (5 times) of the spectra were taken after each addition of D2 O. Comparison of the average of the integrations of the N--CH2 --N absorptions and the integrations of the C2 --H, C8 --H, C5 --H or C6 --H absorptions was used to quantitate the amount of decomposition.
# [6] = lipid and aqueous solubilities of 5-FC and its derivatives; type: physicochemical; conditions: for solubility at 48 h: isopropyl myristate, organic solvent or mixture, read-out: Solubility, IPM
# [7] = water, equilibrated three hours, 180 min; cited from earlier work
# physchem = conditions: organic solvent or mixture
# [8] = flux of theophylline in PG after first application of 5-IDC or prodrug (second application); type: in vitro ADME, hairless mice
# Description: A suspension of theophylline in PG (Th/PG; 0.5 ml, 0.4M) was then applied to each diffusion cell. […] This phase of the diffusion cell experiment is labelled the second application.
# The slopes for each phase of the plotted lines were obtained by linear regression analysis; the slopes were then divided by the surface area of the diffusion cells (4.9 cm^2) to obtain a value for flux (J) in mg/cm^2 /h. The reported fluxes are the average flux for the three cells.
# [9] = lipid and aqueous solubilities of 5-IDC and its prodrugs; type: physicochemical; conditions: for Solubility, IPM / solubility at 48 h: isopropyl myristate; for solubility: pH 5.5, water, apparent; for solubility at 48 h: organic solvent or mixture, read-out: Solubility, IPM
# Description: The approximate aqueous solubilities were determined by the addition of 100 mg of solid to 1 ml distilled water (pH 5.5). Water was added until all the solid dissolved.
# The lipid solubilities of 5-iodo-2'-deoxycytidine and its N-Mannich base prodrugs were determined in isopropyl myristate. Three suspensions of the drug or prodrugs were stirred for 48 hours and then filtered. The filtrates were then diluted with either methanol, for the parent drug or dry acetonitrile, for the N-Mannich base prodrugs. The concentration of compound in solution was determined by monitoring the UV absorption at 294 nm (ε=5.79×10^3 1/mole) for 5-IDC, 333 nm (ε=2.46×10^4) for the formamidine derivative and 296 nm for the derivatives. The aqueous solubilities were obtained as described above.
# [10] = solubility of 5-iodo-2'-deoxycytidine in various vehicles; type: physicochemical; conditions: for solubility: organic solvent or mixture
# [11] = phosphate buffer, pH 7.1
# [12] = skins leached 120 hours, no methanol wash
# Description: After this last sampling of the receptor phase (amount left in skin), the receptor phase was again changed. […] The cumulative amount of theophylline in the receptor phase was calculated as described above. This phase of the diffusion cell studies is termed the second application.
# Several control studies were also performed. […] This was the baseline for the second application. […] Theophylline in PG was then applied to assess the effect of the methanol wash (used to remove the remaining donor phase from the first application) on the skin's permeability. […] The receptor phase was changed and a suspension of Th in PG was added as before.
# The slopes for each phase of the plotted lines were obtained by linear regression analysis (r>0.990); the slopes were then divided by the surface area of the diffusion cells (4.9 cm^2) to obtain a value for flux (J) in mg/cm^2 /h. The reported fluxes are the average flux of the three diffusion cells.
# [13] = cited from earlier work; remark: listed apart in the source
# [14] = solubilities of prodrugs and parent drugs in selected solvents (Example 8); conditions: Solubility, suspensions sonicated for 3 hr
# [15] = hydrolysis of 5-IDC derivatives in pH 7.1 buffer; type: physicochemical; conditions: 24°, read-out: half-life (t1/2) of hydrolysis
# Description: The hydrolysis of the prodrugs in pH 7.1 buffer (0.05M,=0.15) was monitored by UV spectroscopy at 294 nm, by measuring the appearance of 5-IDC. A plot of log (At -A.infin.) versus time was linear so first-order reaction kinetics were assumed. Each hydrolysis was performed in triplicate at a constant temperature of 24.0°±0.1° and the half-lives and rates of hydrolysis were obtained using the Guggenheim method. Stock solutions of the prodrugs were made in dry acetonitrile, and 0.1 ml of the solution was added to 3 ml of buffer in a cuvette.
structure (smiles),measurement,setting,value
CCCC(=O)OCn1cc(F)c(=O)[nH]c1=O [1-butyryloxymethylderivative],times better than 5-FU in delivering 5-FU,[1]; from literature flux,2.2 times
same,flux,[2]; not told,17.2×10^-4 mg/cm^2.hr
Cn1c(=O)c2c(ncn2CO)n(C)c1=O [7-(hydroxymethyl)theophylline],flux,[3]; not told,11.1×10^-2 mg/cm^2.hr
same,times more effective than theophylline in delivering theophylline,[4],about 6.5 times
CCCC(=O)OCn1cnc2c1c(=O)n(C)c(=O)n2C [7-butyryloxymethyl)theophylline],flux,"[3]; previous study (Sloan et al), IPM",7.25×10^-2 mg/cm^2.hr
same,times more effective than theophylline in delivering theophylline,[4],4.2 times
"c1nc(NCN2CCOCC2)c2ncn(CN3CCOCC3)c2n1 [Compound 1d, Bis-N^6,9-(4'-morpholinyl)methyladenine]",half-life at 100 µM,[5],~30 min
"c1nc(NCN2CCCCC2)c2ncn(CN3CCCCC3)c2n1 [Compound 1e, Bis-N^6,9-(1'-piperidinyl)methyladenine]",half-life at 100 µM,[5],~5 min
"O=c1nc(NCN2CCOCC2)ccn1CN1CCOCC1 [Compound 2d, Bis-N^4,1-(4'-morpholinyl)methylcytosine]",half-life at 100 µM,[5],~180 min
"Nc1nc(=O)[nH]cc1F [Compound 5-FC, 5-fluorocytosine]",solubility,"[6]; distilled water (pH 5.5), approximate, decomposing",7000 µg/mL and 50000 µM
same,solubility at 48 h,[6],0.039 mM
same,solubility at 48 h,[6]; ±SD,0.005 mg/mL
same,"aqueous solubility, literature value",[7],120 mM
same,solubility,physchem; 1-octanol,0.42 mg/mL
same,solubility,physchem; dmf,3.52 mg/mL
same,solubility,physchem; ethylene glycol,20 mg/mL
same,solubility,physchem; ethylene glycol:formamide (1:1),17.5 mg/mL
same,solubility,physchem; ethylene glycol:formamide (4:1),17.9 mg/mL
same,solubility,physchem; formamide,13.7 mg/mL
same,solubility,physchem; ipm,0.0045 mg/mL
same,solubility,physchem; pg,10.8 mg/mL
"Nc1nc(=O)n([C@H]2C[C@H](O)[C@@H](CO)O2)cc1I [Compound 5-IDC, 5-iodo-2'-deoxycytidine]",increase of flux of theophylline from PG,[8]; after 5-IDC,1.3 times
same,X-intercept,[8]; first application in IPM,0.6 h
same,Flux of theophylline from PG after first application,"[8]; first application in IPM, Th/PG 0.4 M, ±SD",246 (17) mg/cm^2 /h × 10^3
same,"Solubility, IPM",[9],0 M(× ^5)
same,"Solubility, IPM",[9]; ±SD,0 mg/ml(× 10^2)
same,solubility,[9],< 1000 µg/mL and < 2800 µM
same,"X-intercept, initial phase",IPM,5.0 h
same,"X-intercept, steady-state",IPM,14.0 h
same,duration of initial phase,IPM,19 h
same,duration of steady-state delivery,IPM,11 h
same,conversion of 5-IDC to 5-IDU,"diffusion cells, HPLC",no conversion of 5-IDC to 5IDU was detected
same,solubility,"[10]; 1-octanol, read-out: Solubility of 5-IDC, mole fraction",0.96 mM
same,solubility,"[10]; 1-propanol, read-out: Solubility of 5-IDC, mole fraction",6.09 mM
same,"Solubility of 5-IDC, mole fraction",[10]; IPM,0 mole fraction (× 10^3)
same,solubility,"[10]; eg, read-out: Solubility of 5-IDC, mole fraction",89.2 mM
same,solubility,"[10]; ethylene glycol, EG, ±SD, read-out: Solubility of 5-IDC",31.5 mg/mL
same,solubility,"[10]; formamide, For, ±SD, read-out: Solubility of 5-IDC",56.9 mg/mL
same,solubility,"[10]; formamide, read-out: Solubility of 5-IDC, mole fraction",161 mM
same,solubility,"[10]; 1-octanol, ±SD, read-out: Solubility of 5-IDC",0.34 mg/mL
same,solubility,"[10]; 1-propanol, ±SD, read-out: Solubility of 5-IDC",2.15 mg/mL
same,solubility,"[10]; pg, read-out: Solubility of 5-IDC, mole fraction",55.7 mM
same,solubility,"[10]; propylene glycol, PG, ±SD, read-out: Solubility of 5-IDC",19.7 mg/mL
"CCN(CC)CNc1ccn(CN(CC)CC)c(=O)n1 [Cytosine (Et), Bis-N^4,1-(diethylamino)methylcytosine]","Half-life of hydrolysis, cytosine derivatives",[11],0.26(0.00) min
"Cn1c(=O)c2[nH]cnc2n(C)c1=O [I, Theophylline]",flux,[3]; not told,1.72±0.13×10^-2 mg/cm^2.hr
same,"flux for Th/PG, baseline",[12],1.41±0.09×10^-3 mg/cm2 /h
"O=c1[nH]cc(F)c(=O)[nH]1 [VII, 5-Fluorouracil]",theoretical 24 hr value for 5-FU diffused,"[1]; PG, 24 hr, 4.9 cm^2, calculated from literature flux and lag",0.015 mg
same,pKa,[13],13.0
same,solubility,"[14]; isopropyl myristate, organic solvent or mixture, IPM",0.0044 mg/mL
same,solubility,"[14]; propylene glycol, organic solvent or mixture, PG",15.1 mg/mL
same,solubility,[14]; water,26.2 mg/mL
same,lag time,"[2]; PG, calculated from literature data (Mollgaard et al)",17 h
"O=c1nc(NCN2CCOCC2)c(I)cn1[C@H]1C[C@H](O)[C@@H](CO)O1 [XXIIIb, N^4-(1""-morpholinyl)methyl-5-iodo-2'-deoxycytidine hydrate]",half-life,[15],12.8 ± 0.6 min
same,solubility at 48 h,[9],0.029 mM
same,solubility at 48 h,[9]; ±SD,0.013 mg/mL
same,solubility,[9],20000 µg/mL and 44000 µM
"O=c1nc(NCN2CCCCC2)c(I)cn1[C@H]1C[C@H](O)[C@@H](CO)O1 [XXIIb, N^4-(1""-piperidinyl)methyl-5-iodo-2'-deoxycytidine hydrate]",half-life,[15],0.89 ± 0.06 min
same,"Solubility, IPM","[9]; ±SD, 2880 min, hydrate",1.6(0.5) mg/ml(× 10^2)
